{
  "source": "patent US20220347150A1",
  "about": "“TASIMELTEON USE IN TREATING SLEEP ABERRATIONS” (Vanda Pharmaceuticals Inc., priority 2019, published 2022)",
  "origin": "cited, not measured here",
  "key": {"[1]": {"details": "subjects with a 5-hour advance in sleep-wake cycle; treatment relative to placebo; reported in US 20090105333A1 (WO2007/137244)"}, "[2]": {"details": "preclinical models of acute phase-shifting and chronic re-entrainment"}},
  "data": [
    {"compound": "CCC(=O)NC[C@@H]1C[C@H]1c1cccc2c1CCO2", "note": "[tasimelteon, Tasimelteon]", "values": [
      {"measurement": "shifting dim light melatonin onset", "setting": "[1]", "value": "positive outcomes"},
      {"measurement": "sleep efficacy", "setting": "[1]", "value": "positive outcomes"},
      {"measurement": "chronobiotic activity", "setting": "[2]", "value": "potent chronobiotic activity"}
    ]}
  ]
}
